Values of other authors as cited in publication PMC9516332 (Frontiers in Oncology, 2022).
Where two headings read alike, the source gives them in different places.

Legend:
Conditions in all cases: cited from earlier work
[1] = target: panel of 255 wild-type kinases (Homo sapiens, UniProt Q13557)
[2] = target: T1, panel of 255 wild-type kinases (Homo sapiens, UniProt Q08881)
T1 sequence (Q08881 1-620): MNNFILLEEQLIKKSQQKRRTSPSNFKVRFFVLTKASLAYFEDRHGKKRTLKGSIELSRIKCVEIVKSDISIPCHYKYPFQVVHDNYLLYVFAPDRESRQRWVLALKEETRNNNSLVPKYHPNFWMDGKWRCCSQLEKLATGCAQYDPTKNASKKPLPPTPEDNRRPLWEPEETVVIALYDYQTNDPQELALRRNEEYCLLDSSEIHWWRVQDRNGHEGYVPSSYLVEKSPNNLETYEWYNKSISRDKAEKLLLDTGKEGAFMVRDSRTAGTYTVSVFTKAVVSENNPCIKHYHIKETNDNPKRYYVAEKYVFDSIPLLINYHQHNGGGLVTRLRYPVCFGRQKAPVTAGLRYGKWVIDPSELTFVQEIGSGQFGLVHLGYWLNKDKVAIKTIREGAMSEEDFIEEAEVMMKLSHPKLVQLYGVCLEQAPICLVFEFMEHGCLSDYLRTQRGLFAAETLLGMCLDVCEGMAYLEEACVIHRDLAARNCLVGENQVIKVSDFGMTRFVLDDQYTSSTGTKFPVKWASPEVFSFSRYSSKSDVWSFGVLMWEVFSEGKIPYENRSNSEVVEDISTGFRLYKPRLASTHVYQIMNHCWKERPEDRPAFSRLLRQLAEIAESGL

[3] = target: panel of 255 wild-type kinases (Homo sapiens, UniProt Q14289)
[4] = target: panel of 255 wild-type kinases (Homo sapiens, UniProt O75676)
[5] = target: panel of 255 wild-type kinases (Homo sapiens, UniProt Q00534)
[6] = target: panel of 255 wild-type kinases (Homo sapiens, UniProt P22607)
[7] = target: panel of 255 wild-type kinases (Homo sapiens, UniProt P54646)
[8] = target: panel of 255 wild-type kinases (Homo sapiens, UniProt P04629)
[9] = target: panel of 255 wild-type kinases (Homo sapiens, UniProt Q9UM73)
[10] = target: panel of 255 wild-type kinases (Homo sapiens, UniProt O75116)
[11] = target: panel of 255 wild-type kinases (Homo sapiens, UniProt P22612)
[12] = target: panel of 255 wild-type kinases (Homo sapiens, UniProt P19525)
[13] = target: panel of 255 wild-type kinases (Homo sapiens, UniProt Q16539)
[14] = target: panel of 255 wild-type kinases (Homo sapiens, UniProt Q13555)
[15] = tested on: panel of 255 wild-type kinases
[16] = target: panel of 255 wild-type kinases (Homo sapiens, UniProt P49841)
[17] = target: panel of 255 wild-type kinases (Homo sapiens, UniProt P11309)
[18] = target: panel of 255 wild-type kinases (Homo sapiens, UniProt P43405)
[19] = CaMK2δ kinase assay, 1 µmol/L single concentration, ref DOI: 10.1158/1535-7163.MCT-18-0877
[20] = kinase ITK, 1 µmol/L single concentration, ref DOI: 10.1158/1535-7163.MCT-18-0877
[21] = kinase PYK2, 1 µmol/L single concentration, ref DOI: 10.1158/1535-7163.MCT-18-0877
[22] = MSK2, 1 µmol/L single concentration, ref DOI: 10.1158/1535-7163.MCT-18-0877
[23] = CDK6/CycD3 kinase assay, 1 µmol/L single concentration, ref DOI: 10.1158/1535-7163.MCT-18-0877
[24] = kinase FGFR3, 1 µmol/L single concentration, ref DOI: 10.1158/1535-7163.MCT-18-0877
[25] = AMPKα2/β1/γ1 kinase assay, 1 µmol/L single concentration, ref DOI: 10.1158/1535-7163.MCT-18-0877
[26] = kinase TRKA, 1 µmol/L single concentration, ref DOI: 10.1158/1535-7163.MCT-18-0877
[27] = ALK kinase assay, 1 µmol/L single concentration, ref DOI: 10.1158/1535-7163.MCT-18-0877
[28] = kinase ROCK2, 1 µmol/L single concentration, ref DOI: 10.1158/1535-7163.MCT-18-0877
[29] = kinase PKACγ, 1 µmol/L single concentration, ref DOI: 10.1158/1535-7163.MCT-18-0877
[30] = kinase PKR, 1 µmol/L single concentration, ref DOI: 10.1158/1535-7163.MCT-18-0877
[31] = p38α, 1 µmol/L single concentration, ref DOI: 10.1158/1535-7163.MCT-18-0877
[32] = CaMK2γ kinase assay, 1 µmol/L single concentration, ref DOI: 10.1158/1535-7163.MCT-18-0877
[33] = kinase FYN [isoform b], 1 µmol/L single concentration, ref DOI: 10.1158/1535-7163.MCT-18-0877
[34] = kinase LYNb, 1 µmol/L single concentration, ref DOI: 10.1158/1535-7163.MCT-18-0877
[35] = kinase PKCβ2, 1 µmol/L single concentration, ref DOI: 10.1158/1535-7163.MCT-18-0877
[36] = kinase SRM, 1 µmol/L single concentration, ref DOI: 10.1158/1535-7163.MCT-18-0877
[37] = kinase GSK3β, 1 µmol/L single concentration, ref DOI: 10.1158/1535-7163.MCT-18-0877
[38] = kinase PIM1, 1 µmol/L single concentration, ref DOI: 10.1158/1535-7163.MCT-18-0877
[39] = kinase SYK, 1 µmol/L single concentration, ref DOI: 10.1158/1535-7163.MCT-18-0877

## CC#CC(=O)N1CCC[C@H]1c1nc(-c2ccc(C(=O)Nc3ccccn3)cc2)c2c(N)nccn12 [acalabrutinib]
[1]; [19]
  %-inhibition CaMK2δ: -3.53%
[2]; [20]
  %-inhibition at 1 µmol/L, ITK: 0.871%
[3]; [21]
  %-inhibition at 1 µmol/L, PYK2: -3.55%
[4]; [22]
  %-inhibition, MSK2: 1.53%
[5]; [23]
  %-inhibition CDK6/CycD3: 3%
[6]; [24]
  %-inhibition at 1 µmol/L, FGFR3: -1.31%
[7]; [25]
  %-inhibition AMPKα2/β1/γ1: 3.5%
[8]; [26]
  %-inhibition at 1 µmol/L, TRKA: 13%
[9]; [27]
  %-inhibition ALK: 5.27%
[10]; [28]
  %-inhibition at 1 µmol/L, ROCK2: -2.29%
[11]; [29]
  %-inhibition at 1 µmol/L, PKACγ: 1.68%
[12]; [30]
  %-inhibition at 1 µmol/L, PKR: 7%
[13]; [31]
  %-inhibition, p38α: -0.752%
[14]; [32]
  %-inhibition CaMK2γ: -1.85%
[15]; [33]
  %-inhibition at 1 µmol/L, FYN [isoform b]: -1.25%
[15]; [34]
  %-inhibition at 1 µmol/L, LYNb: -2%
[15]; [35]
  %-inhibition at 1 µmol/L, PKCβ2: -12%
[15]; [36]
  %-inhibition at 1 µmol/L, SRM: 39%
[16]; [37]
  %-inhibition at 1 µmol/L, GSK3β: -2.39%
[17]; [38]
  %-inhibition at 1 µmol/L, PIM1: -4.28%
[18]; [39]
  %-inhibition at 1 µmol/L, SYK: -19%

## COc1cc(N2CCC(N3CCN(C)CC3)CC2)ccc1Nc1ncc(Cl)c(Nc2ccccc2P(C)(C)=O)n1 [brigatinib]
[1]
  %-inhibition CaMK2δ: 101%
[2]
  %-inhibition at 1 µmol/L, ITK: 95%
[3]
  %-inhibition at 1 µmol/L, PYK2: 104%
[4]
  %-inhibition, MSK2: 10%
[5]
  %-inhibition CDK6/CycD3: 18%
[6]
  %-inhibition at 1 µmol/L, FGFR3: 93%
[7]
  %-inhibition AMPKα2/β1/γ1: 90%
[8]
  %-inhibition at 1 µmol/L, TRKA: 83%
[9]
  %-inhibition ALK: 100%
[10]
  %-inhibition at 1 µmol/L, ROCK2: 30%
[11]
  %-inhibition at 1 µmol/L, PKACγ: 9%
[12]
  %-inhibition at 1 µmol/L, PKR: 14%
[13]
  %-inhibition, p38α: -0.837%
[14]
  %-inhibition CaMK2γ: 96%
[15]
  %-inhibition at 1 µmol/L, FYN [isoform b]: 56%
  %-inhibition at 1 µmol/L, LYNb: 43%
  %-inhibition at 1 µmol/L, PKCβ2: 31%
  %-inhibition at 1 µmol/L, SRM: 92%
[16]
  %-inhibition at 1 µmol/L, GSK3β: -1.81%
[17]
  %-inhibition at 1 µmol/L, PIM1: 3%
[18]
  %-inhibition at 1 µmol/L, SYK: 68%

## Cc1cc(Nc2ncc(Cl)c(Nc3ccccc3S(=O)(=O)C(C)C)n2)c(OC(C)C)cc1C1CCNCC1 [ceritinib]
[1]; [19]
  %-inhibition CaMK2δ: 76%
[2]; [20]
  %-inhibition at 1 µmol/L, ITK: 11%
[3]; [21]
  %-inhibition at 1 µmol/L, PYK2: 100%
[4]; [22]
  %-inhibition, MSK2: 2.2%
[5]; [23]
  %-inhibition CDK6/CycD3: 3.4%
[6]; [24]
  %-inhibition at 1 µmol/L, FGFR3: 21%
[7]; [25]
  %-inhibition AMPKα2/β1/γ1: 40%
[9]; [27]
  %-inhibition ALK: 99%
[11]; [29]
  %-inhibition at 1 µmol/L, PKACγ: 1.46%
[12]; [30]
  %-inhibition at 1 µmol/L, PKR: -1%
[13]; [31]
  %-inhibition, p38α: 1.8%
[14]; [32]
  %-inhibition CaMK2γ: 32%
[15]; [33]
  %-inhibition at 1 µmol/L, FYN [isoform b]: -4%
[15]; [34]
  %-inhibition at 1 µmol/L, LYNb: 11%
[15]; [35]
  %-inhibition at 1 µmol/L, PKCβ2: 4%
[15]; [36]
  %-inhibition at 1 µmol/L, SRM: 40%
[16]; [37]
  %-inhibition at 1 µmol/L, GSK3β: -2.5%
[17]; [38]
  %-inhibition at 1 µmol/L, PIM1: -8%
[18]; [39]
  %-inhibition at 1 µmol/L, SYK: 5%

## C=CC(=O)N1CCC[C@@H](n2nc(-c3ccc(Oc4ccccc4)cc3)c3c(N)ncnc32)C1 [ibrutinib]
[1]; [19]
  %-inhibition CaMK2δ: -0.826%
[2]; [20]
  %-inhibition at 1 µmol/L, ITK: 93%
[3]; [21]
  %-inhibition at 1 µmol/L, PYK2: 3.37%
[4]; [22]
  %-inhibition, MSK2: -2%
[5]; [23]
  %-inhibition CDK6/CycD3: 4.32%
[6]; [24]
  %-inhibition at 1 µmol/L, FGFR3: 82%
[7]; [25]
  %-inhibition AMPKα2/β1/γ1: 10%
[8]; [26]
  %-inhibition at 1 µmol/L, TRKA: 59%
[9]; [27]
  %-inhibition ALK: 5.45%
[10]; [28]
  %-inhibition at 1 µmol/L, ROCK2: 3.74%
[11]; [29]
  %-inhibition at 1 µmol/L, PKACγ: 5%
[12]; [30]
  %-inhibition at 1 µmol/L, PKR: 5.63%
[13]; [31]
  %-inhibition, p38α: -2.71%
[14]; [32]
  %-inhibition CaMK2γ: -1.83%
[15]; [33]
  %-inhibition at 1 µmol/L, FYN [isoform b]: 87%
[15]; [34]
  %-inhibition at 1 µmol/L, LYNb: 100%
[15]; [35]
  %-inhibition at 1 µmol/L, PKCβ2: 1.78%
[15]; [36]
  %-inhibition at 1 µmol/L, SRM: 102%
[16]; [37]
  %-inhibition at 1 µmol/L, GSK3β: -4%
[18]; [39]
  %-inhibition at 1 µmol/L, SYK: -20%
